Article PMC10323144, “Garbage in, garbage out: how reliable training data improved a virtual screening approach against SARS-CoV-2 MPro” (Frontiers in Pharmacology, 2023)
Read-outs that look alike come from different tables or passages of the source.

Tests used:
MPro = details: compiled from peer-reviewed sources (287 compounds) ref the 18 original articles; cited from earlier work
SARS-CoV-2 MPro = SARS-CoV-2 MPro (Severe acute respiratory syndrome coronavirus 2, UniProt P0DTD1); experiment: MPro activity assay (de-quenching of Edans fluorescence on cleavage of a Dabcyl/Edans peptide); format: biochemical; details: for activity at 10 µM: read-out: % activity MPro; for IC50: 60 min pre-incubation, 5 μM substrate; for activity at 25 µM: read-out: MPro activity (%); for Class (MPro activity class): in-house acquired data, internal screening under standardized conditions (128 compounds)
in vitro = details: African green monkey
[1] = Cytotoxicity assay, WST-1; details: human, CC50 A549 cells
[2] = tested on: SARS-CoV-2 (βCoV/KOR/KCDC03/2020); experiment: microbe, parasite or virus in culture; format: cell-based
[3] = Severe acute respiratory syndrome coronavirus 2, Vero, 24 h

Question: For `CC(C)(C)OC(=O)Nc1cccn(C(CC2CCCCC2)C(=O)NC(CC2CCNC2=O)C(=O)C(=O)NC2CC2)c1=O` (stereo not shown) [compound 13a], which “Class (MPro activity class)” value (MPro) is on record?
Answer: Its value is 1 (Compounds with IC50 < 10 µM or with a percentage of enzyme inhibition >50% at 10 µM were labelled as ACTIVE).

Question: And the activity at 10 µM (SARS-CoV-2 MPro)?
Answer: Its activity at 10 µM is 98.6 ± 0.9%.

Question: Which CC50 (in vitro) does the source give for `O=C(/C=C/c1ccc2ccccc2c1)c1ccccc1O` [compound 25] here?
Answer: The CC50 was 38.8 µM.

Question: What about the CC50 at 24 h [1] of the same compound?
Answer: The CC50 at 24 h was greater than 50 µM.

Question: What about the IC50 (SARS-CoV-2 MPro) of the same compound?
Answer: Its IC50 is 0.46 ± 0.21 µM.

Question: What about the IC50 [2] of the same compound?
Answer: The IC50 was 17.5 µM.

Question: With `O=C(/C=C/c1ccc2no[n+]([O-])c2c1)c1ccc(Cl)cc1` [5d] as the compound, how does the CC50 (in vitro) read?
Answer: The CC50 was greater than 50 µM.

Question: What about the CC50 at 24 h [1] of the same compound?
Answer: Its CC50 at 24 h is greater than 50 µM.

Question: And the IC50 (SARS-CoV-2 MPro)?
Answer: The IC50 was 0.64 ± 0.02 µM.

Question: What about the IC50 [2] of the same compound?
Answer: The IC50 was 43.2 µM.

Question: And the IC50 [2, 3]?
Answer: Its IC50 is roughly 44 µM.

Question: Which results are given for `CCN(CC)CCCC(C)Nc1ccnc2cc(Cl)ccc12` (stereo not shown) [Chloroquine]?
Answer: CC50 (in vitro): > 150 µM; Class (MPro activity class) (MPro): 0 (compounds with IC50 > 20 μM, percentage inhibition <80% at 20 µM or 50 μM, or percentage enzyme inhibition <50% at 10 µM were labelled as INACTIVE); IC50 [2]: 17.8 µM; IC50 [2, 3]: 18 µM

Question: Which CC50 (in vitro) does the source give for `O=C(OC[C@H]1O[C@@H]([S+]([O-])c2ccccc2)[C@H](OC(=O)c2ccccc2)[C@@H](OC(=O)c2ccccc2)[C@@H]1OC(=O)c1ccccc1)c1ccccc1` (stereo partly shown) [7a] here?
Answer: Its CC50 is greater than 50 µM.

Question: And the IC50 (SARS-CoV-2 MPro)?
Answer: Its IC50 is 20.2 ± 1.9 µM.

Question: What about the IC50 [2, 3] of the same compound?
Answer: The IC50 was greater than 50 µM.

Question: And the inhibition at 25 µM ([2]; Severe acute respiratory syndrome coronavirus 2, Vero, at 25 μM, read-out: inhibition of viral replication)?
Answer: Its inhibition at 25 µM is 15%.

Question: What about the inhibition at 50 µM ([2]; Severe acute respiratory syndrome coronavirus 2, Vero, at 50 μM, read-out: inhibition of viral replication) of the same compound?
Answer: Its inhibition at 50 µM is 21%.

Question: What does the source list for `O=C(/C=C/c1ccc2ccccc2c1)c1c(O)ccc2ccccc12` [27d]?
Answer: IC50 (SARS-CoV-2 MPro): 5.8 µM; antiviral activity (in words) [2]: lacked antiviral activity

Question: Which results are given for `Nc1ccc(S(=O)(=O)c2ccc(Nc3c([N+](=O)[O-])c(Cl)cc4c3no[n+]4[O-])cc2)cc1` [22d]?
Answer: CC50 (in vitro): > 50 µM; CC50 at 24 h [1]: > 100 µM; IC50 (SARS-CoV-2 MPro): 0.37 ± 0.085 µM; IC50 [2]: 44.8 µM; IC50 [2, 3]: ~44 µM

Question: Which “Class (MPro activity class)” value (MPro) does the source give for `O=CC(CC1CCNC1=O)NC(=O)C(CC1CCCCC1)NC(=O)c1cc2ccccc2[nH]1` (stereo not shown) [11a] here?
Answer: The value was 1 (Compounds with IC50 < 10 µM or with a percentage of enzyme inhibition >50% at 10 µM were labelled as ACTIVE).

Question: What about the activity at 10 µM (SARS-CoV-2 MPro) of the same compound?
Answer: Its activity at 10 µM is 104 ± 1.1%.

Question: Which CC50 at 24 h [1] does the source give for `[O-][n+]1onc2ccc(/C=C\c3ccc(Cl)cc3)cc21` [2d] here?
Answer: The CC50 at 24 h was greater than 50 µM.

Question: What about the activity at 25 µM (SARS-CoV-2 MPro) of the same compound?
Answer: The activity at 25 µM was 53.2 ± 0.2%.

Question: Which CC50 (in vitro) does the source give for `Cc1cccc(C)c1OCC(=O)N[C@@H](Cc1ccccc1)[C@@H](O)C[C@H](Cc1ccccc1)NC(=O)[C@H](C(C)C)N1CCCNC1=O` [Lopinavir] here?
Answer: Its CC50 is greater than 150 µM.

Question: What about the “Class (MPro activity class)” value (MPro) of the same compound?
Answer: The value was 0 (compounds with IC50 > 20 μM, percentage inhibition <80% at 20 µM or 50 μM, or percentage enzyme inhibition <50% at 10 µM were labelled as INACTIVE).

Question: What about the IC50 [2] of the same compound?
Answer: The IC50 was 21.5 µM.

Question: And the IC50 [2, 3]?
Answer: Its IC50 is 22 µM.

Question: With `CNC(=S)NN=C(C)c1cc2ccccc2oc1=O` [COV19137] as the compound, how does the “Class (MPro activity class)” value (SARS-CoV-2 MPro) read?
Answer: The value was 0 (compounds with IC50 > 20 μM, percentage inhibition <80% at 20 µM or 50 μM, or percentage enzyme inhibition <50% at 10 µM were labelled as INACTIVE).

Question: With `Oc1cc(O)c2c(c1)O[C@H](c1ccc(O)c(O)c1)[C@H](O)C2` [4b, epicatechin] as the compound, how does the “% activity MPro at 10 μM or 25 μM” value (SARS-CoV-2 MPro; 10 μM or 25 μM compound) read?
Answer: The value was 88.7 ± 0.6%.

Question: And the “activity against MPro (in words)” value (SARS-CoV-2 MPro; 25 μM where stated)?
Answer: The value was “negligible activity”.

Question: With `COc1ccc(C(=O)C2=C(O)C(=O)N(c3nc4ccc(Cl)cc4s3)C2c2ccc(F)cc2)cc1OC` (stereo not shown) [1a] as the compound, how does the IC50 (SARS-CoV-2 MPro) read?
Answer: Its IC50 is less than 25 µM.

Question: What about the activity at 25 µM (SARS-CoV-2 MPro) of the same compound?
Answer: Its activity at 25 µM is 34.8 ± 3.4%.

Question: With `NC1CCc2nc(NC(=O)c3cc(Cl)c(Cl)[nH]3)sc2C1` (stereo not shown) [Cpd 49] as the compound, how does the “Class (MPro activity class)” value (SARS-CoV-2 MPro) read?
Answer: Its value is 0 (compounds with IC50 > 20 μM, percentage inhibition <80% at 20 µM or 50 μM, or percentage enzyme inhibition <50% at 10 µM were labelled as INACTIVE).

Question: For `COc1ccc(C2C(C(=O)c3ccc4c(c3)OCCO4)=C(O)C(=O)N2c2nc3ccc(Cl)cc3s2)cc1OC` (stereo not shown) [ADRMC157], which “Class (MPro activity class)” value (SARS-CoV-2 MPro) is on record?
Answer: Its value is 0 (compounds with IC50 > 20 μM, percentage inhibition <80% at 20 µM or 50 μM, or percentage enzyme inhibition <50% at 10 µM were labelled as INACTIVE).

Question: Which “Class (MPro activity class)” value (SARS-CoV-2 MPro) does the source give for `Cc1cccc2c(=O)[nH]sc12` [COV19002] here?
Answer: Its value is 0 (compounds with IC50 > 20 μM, percentage inhibition <80% at 20 µM or 50 μM, or percentage enzyme inhibition <50% at 10 µM were labelled as INACTIVE).

Question: For `O=C(Cn1ccnc1-n1sc2ccccc2c1=O)NCc1ccccc1` [COV19023], which “Class (MPro activity class)” value (SARS-CoV-2 MPro) is on record?
Answer: Its value is 0 (compounds with IC50 > 20 μM, percentage inhibition <80% at 20 µM or 50 μM, or percentage enzyme inhibition <50% at 10 µM were labelled as INACTIVE).

Question: Which “Class (MPro activity class)” value (SARS-CoV-2 MPro) does the source give for `O=C(C1=C(O)C(=O)N(c2nc3ccc(Cl)cc3s2)C1c1ccc(O)cc1)c1ccc2c(c1)OCCO2` (stereo not shown) [AD83] here?
Answer: The value was 0 (compounds with IC50 > 20 μM, percentage inhibition <80% at 20 µM or 50 μM, or percentage enzyme inhibition <50% at 10 µM were labelled as INACTIVE).

Question: For `CC(C)(C)OC(=O)NC1CCCN(CC(=O)NC(Cc2ccccc2)C(=O)Nc2nc3cc(Sc4ccccc4)ccc3[nH]2)C1=O` (stereo not shown) [COV19184], which “Class (MPro activity class)” value (SARS-CoV-2 MPro) is on record?
Answer: The value was 0 (compounds with IC50 > 20 μM, percentage inhibition <80% at 20 µM or 50 μM, or percentage enzyme inhibition <50% at 10 µM were labelled as INACTIVE).
